Data as given in US6541672B1, “Derivatives of benzilidine cyclohexanone, benzilidine cyclopentanone, and benzilidine acetone and their synthesis” (Faculty of Pharmacy, The University of Gadjah Mada, priority 1997, dated 2003).

Assays:
[1] = tested on: carragenin rat paw edema; test: Anti inflammatory activity test (Winter, 1962), carragenin rat paw edema; format: in vivo, Wistar rats; settings: peroral in CMC 1%, inhibition of rat paw edema volume, doses 10-80 mg/kg bw
Description: ANTI INFLAMMATORY ACTIVITY TEST (WINTER, 1962)
Carragenin was used as an inflammatory agent. The volum inhibition of rat paw edema following peroral administration of various doses of the sysnthetic compounds in 1% CMC in comparison to that of control was used to determine the activity of the compounds. In order to evaluate the anti-inflammatory of each compound. Wistar rats (body weight ranging from 200-250 g) were used and divided randomly into 5 groups: one group served as or control and 4 groups were treatment groups. The control group received the vehicle CMC; (Carboxy Methyl Cellulose […]), while the treatment groups received the synthetic compound per orally in CMC 1%. Doses of 10, 20, 40 and 80 mg/kg bw were given to the animals. Where one hour later the animals received a subplantar injection of 0.05 ml of carragenin suspension in saline solution (NaCi 0.9%)- The volumes of rat paw edema were measured immediately and every half an hour following the subplantar injection for 5 hours.

[2] = tested on: lipid peroxidation (microsome); test: Anti oxidation test (Haenen and Bast, 1983), lipid peroxidation; format: biochemical; settings: malondialdehyde (TBA), microsome 2 mg protein/ml, 37° C., absorbance 535 nm
Experimental: ANTI OXIDATION […], 1983) Anti oxidative activity (lipid peroxidation) was determined by measuring the reactive form of thiobarbituric acid, i.e. malondialdehyde. The synthetic compound with final concentration of 0.5; 1.0; 2.0; 4.0 microM was put into glass tubes. […] The mixture was pre-incubated at 37° C. for 5 minutes. Lipid peroxidation was initiated with the addition of ferro sulphate (0.5 ml, 10 microN) and incubated at 37° C. for 5 minutes, the reaction was stopped by addition of aliquot (0.3 ml) to the mixture of TCA, TBA, and BHT (2 ml) in cold. After heating (80° C.) for 15 minutes and centrifugation (15 minutes), absorbance was read at 535 nm.

[3] = tested on: S. pheumoniae; test: Anti bacterial and antifungal activity test; format: cell-based, S. pneumoniae; settings: in DMSO, 37° C. 24 hours
Experimental: (§1) ANTI BATERIAL AND ANTIFUNGAL ACTIVITY TEST
(§2) Sterile medium of Bacto Muller Hinton was melted at 45-50° C. and poured (25 ml) into a sterile Petric dish (100 mm in diameter), and was left at room temperature for 1 hour. The sterility was checked by overnight incubation (37° C.). The media was immediately used. The microorganism used was gram positive and gram negative. The drug solutions of 0.1, 0.2 and 0.4% in DMSO were used. Incubation was performed at 37° C. for 24 hours.

[4] = tested on: S. Aureus; test: Anti bacterial and antifungal activity test; format: cell-based; settings: in DMSO, 37° C. 24 hours
Experimental: as §1, §2

[5] = tested on: B. subtilis; test: Anti bacterial and antifungal activity test; format: cell-based; settings: in DMSO, 37° C. 24 hours
Experimental: as §1, §2

[6] = tested on: C. albicans; test: Anti bacterial and antifungal activity test; format: cell-based; settings: in DMSO, 37° C. 24 hours
Experimental: as §1, §2

SMILES | ED 50 [1] | IC50 [2] | Minimum Inhibition Concentration [3] | Minimum Inhibition Concentration [4] | Minimum Inhibition Concentration [5] | Minimum Inhibition Concentration [6]
COc1cc(/C=C2/CCC/C(=C/c3cc(OC)c(O)c(OC)c3)C2=O)cc(OC)c1O [HGV-5] | 222 mg/kg.bb | 1700 nM |  |  |  | 
Cc1cc(/C=C2\CC/C(=C\c3cc(C)c(O)c(C)c3)C2=O)cc(C)c1O [PGV-1] | 86 mg/kg.bb | 2200 nM |  |  |  | 
CCc1cc(/C=C2\CC/C(=C\c3cc(CC)c(O)c(CC)c3)C2=O)cc(CC)c1O [PGV-2] | 80 mg/kg.bb | 2210 nM |  |  |  | 
O=C1C(=Cc2cc(Cl)c(O)c(Cl)c2)CCCC1=Cc1cc(Cl)c(O)c(Cl)c1 [HGV-6] | 25 mg/kg.bb |  | 0.05% | 0.35% | 0.25% | 0.25%
O=C(C=Cc1cc(Cl)c(O)c(Cl)c1)C=Cc1cc(Cl)c(O)c(Cl)c1 [GVT-6, 1,5-bis (4-hydroxy-3,5-dichlorophenyl)-1,4-pentadiene-3-one] |  |  | 0.05% | 0.25% | 0.30% | 0.25%
CCc1cc(C=C2CCCC(=Cc3cc(CC)c(O)c(CC)c3)C2=O)cc(CC)c1O [HGV-2] | 20 mg/kg.bb | 1970 nM |  |  |  | 
O=C1C(=Cc2cc(Cl)c(O)c(Cl)c2)CCC1=Cc1cc(Cl)c(O)c(Cl)c1 [PGV-6] | 20 mg/kg.bb | 14900 nM | 0.10% | 0.25% | 0.20% | 0.25%
COc1cc(/C=C2/CC/C(=C/c3cc(OC)c(O)c(OC)c3)C2=O)cc(OC)c1O [PGV-5] | 48 mg/kg.bb | 990 nM |  |  |  | 
